From patent publication US7160881B2, “Crystalline modifications of 2-(3,5-bis-trifluoromethyl-phenyl)-N-[6-(1,1-dioxo-1 λ6-thiomorpholin-4-yl)-4-(4-fluoro-2-methyl-phenyl)-pyridin-3-yl]-N-methyl-isobutyramide” (Hoffmann-La Roche Inc., priority 2003, dated 2007) come the findings set out here.

A short description of data set [1]: Dynamic Vapor Sorption (DVS). Type of data set: physicochemical. Conditions: from 0 to 90% RH. The text has this:
Dynamic Vapor Sorption (DVS)

Data set [2] is described as follows: Pharmacokinetics after single oral administration to fed male beagle dogs (plasma concentrations by LC-MS, non-compartmental analysis). Type of data set: in vivo. Conditions: for bioavailability (general statement of the description): A: formulations compared with those of B or C modification, amorphous: in microsuspension form; for AUC(0-t): read-out: AUC(0–24 h); for concentration at 24 h: read-out: C(24 h). As to the method: Four male beagle dogs (age 5 to 6 years, body weight 11 to 14 kg) received single oral doses of 2 mg/kg of 2-(3,5-bis-trifluoromethyl-phenyl)-N-[6-(1,1-dioxo-1λ^6-thiomorpholin-4-yl)-4-(4-fluoro-2-methyl-phenyl)-pyridin-3-yl]-N-methyl-isobutyramide form A and form B (cross-over study design). The formulation was a granulate of the finely milled compound with 20% sodium dodecyl sulfate (SDS) in gelatine capsules.
In addition, four male beagle dogs (age 4 to 7 years, body weight 11 to 14 kg) received a single oral dose of 2 mg/kg of 2-(3,5-bis-trifluoromethyl-phenyl)-N-[6-(1,1-dioxo-1λ^6-thiomorpholin-4-yl)-4-(4-fluoro-2-methyl-phenyl)-pyridin-3-yl]-N-methyl-isobutyramide form C as finely milled compound with 10% SDS in gelatine capsules. The dogs received 200 g commercial dog chow (Pal®, approx. 7% fat content) about 30 minutes before administration of the compound.
Two dogs (age 8 years, body weight 12 to 14 kg) received 5 mg/kg of 2-(3,5-bis-trifluoromethyl-phenyl)-N-[6-(1,1-dioxo-1λ^6-thiomorpholin-4-yl)-4-(4-fluoro-2-methyl-phenyl)-pyridin-3-yl]-N-methyl-isobutyramide as amorphous material orally by gavage as microsuspension. The dogs were fed before and during the experiment.
Plasma samples were drawn at several time points. 2-(3,5-bis-Trifluoromethyl-phenyl)-N-[6-(1,1-dioxo-1λ^6-thiomorpholin-4-yl)-4-(4-fluoro-2-methyl-phenyl)-pyridin-3-yl]-N-methyl-isobutyramide plasma concentrations were determined using a selective LC-MS method with a quantification limit of 10 ng/mL. Pharmacokinetic parameters (e.g. AUC, Cmax) were estimated by non-compartmental analysis using WinNonlin 3.1®.

The mark [3] stands for this setting: dog Charly, single oral 2 mg/kg, fed male beagle dog, cross-over, granulate with 20% SDS in gelatine capsules, 2 mg/kg.
The mark [4] stands for this setting: dog Lars, single oral 2 mg/kg, fed male beagle dog, cross-over, granulate with 20% SDS in gelatine capsules, 2 mg/kg.
[5] abbreviates: dog Lupo, single oral 2 mg/kg, fed male beagle dog, cross-over, granulate with 20% SDS in gelatine capsules, 2 mg/kg.
Where [6] appears, read: dog Mickey, single oral 2 mg/kg, fed male beagle dog, cross-over, granulate with 20% SDS in gelatine capsules, 2 mg/kg.
The mark [7] stands for this setting: male, beagle, dog, plasma, po, 2 mg/kg, dog Lars, single oral 2 mg/kg, fed male beagle dog, cross-over, granulate with 20% SDS in gelatine capsules.
[8] abbreviates: male, beagle, dog, plasma, po, 2 mg/kg, mean, n=4, single oral 2 mg/kg, fed male beagle dogs, cross-over, granulate with 20% SDS in gelatine capsules.
The mark [9] stands for this setting: mean, n=4, single oral 2 mg/kg, fed male beagle dogs, cross-over, granulate with 20% SDS in gelatine capsules, 2 mg/kg.
Setting [10] is: single oral 2 mg/kg, fed male beagle dogs, cross-over.
The mark [11] stands for this setting: male, beagle, dog, plasma, po, 2 mg/kg, mean, n=4, single oral 2 mg/kg, fed male beagle dogs, finely milled compound with 10% SDS in gelatine capsules.
Setting [12] is: single oral 2 mg/kg, fed male beagle dogs.
Where [13] appears, read: beagle, dog, plasma, po, 5 mg/kg, mean, n=2, single oral 5 mg/kg by gavage as microsuspension, fed dogs.

Where two headings read alike, the source gives them in different places.

For the compound `Cc1cc(F)ccc1-c1cc(N2CCS(=O)(=O)CC2)ncc1N(C)C(=O)C(C)(C)c1cc(C(F)(F)F)cc(C(F)(F)F)c1` [Example 7, 2-(3,5-Bis-trifluoromethyl-phenyl)-N-[6-(1,1-dioxo-1λ^6-thiomorpholin-4-yl)-4-(4-fluoro-2-methyl-phenyl)-pyridin-3-yl]-N-methyl-isobutyramide], the melting point (in general, the temperature, or range, at which the solid turns liquid) was 135 to 138 °C.

On to `Cc1cc(F)ccc1-c1cc(N2CCS(=O)(=O)CC2)ncc1N(C)C(=O)C(C)(C)c1cc(C(F)(F)F)cc(C(F)(F)F)c1` [Form A, 2-(3,5-bis-trifluoromethyl-phenyl)-N-[6-(1,1-dioxo-1λ^6-thiomorpholin-4-yl)-4-(4-fluoro-2-methyl-phenyl)-pyridin-3-yl]-N-methyl-isobutyramide], for which the “reversible uptake of water (DVS)” value in data set [1] (listed as modification A) is 3.1 %-w/w. For the same compound, the “bioavailability (general statement of the description)” value in data set [2] is “improved bioavailability”. Also, the “bioavailability among the three crystalline polymorphs A, B, and C” value in data set [2] (beagle dogs, powder in gelatine capsules containing sodium dodecyl sulfate) was “highest bioavailability”. The “AUC(0–24 h)” value in data set [2] (setting [3]) stood at 3720 ng·h/mL; in data set [2] (setting [5]), 2490 ng·h/mL; in data set [2] (setting [6]), 2900 ng·h/mL. In addition, in data set [2] (setting [3]), the “C(24 h)” value was found to be 47.6 ng/mL. Moreover, the Cmax (usually the highest concentration seen after dosing) in data set [2] (setting [3]) is 391 ng/mL; in data set [2] (male, beagle, dog, plasma, po, 2 mg/kg, dog Lars, single oral 2 mg/kg, fed male beagle dog, cross-over, granulate with 20% SDS in gelatine capsules, read-out: Cmax), 744 ng/mL; in data set [2] (male, beagle, dog, plasma, po, 2 mg/kg, dog Lupo, single oral 2 mg/kg, fed male beagle dog, cross-over, granulate with 20% SDS in gelatine capsules, read-out: Cmax), 424 ng/mL; in data set [2] (male, beagle, dog, plasma, po, 2 mg/kg, dog Mickey, single oral 2 mg/kg, fed male beagle dog, cross-over, granulate with 20% SDS in gelatine capsules, read-out: Cmax), 496 ng/mL; in data set [2] (male, beagle, dog, plasma, po, 2 mg/kg, mean, n=4, single oral 2 mg/kg, fed male beagle dogs, cross-over, granulate with 20% SDS in gelatine capsules, read-out: Cmax) it was 514 ng/mL. The F in data set [2] (setting [3]) turned out to be 24.5%; in data set [2] (setting [4]) it was 18.2%; in data set [2] (setting [5]) it was 16.2%; in data set [2] (setting [6]), 17.4%; in data set [2] (setting [9]), 19.1%. Moreover, the values for the AUC(0-t) in data set [2] (setting [7]) and in data set [2] (setting [8]) were 2520 ng·h/mL and 2910 ng·h/mL, respectively. Besides, the concentration at 24 h amounted to 28.2 ng/mL in data set [2] (setting [7]); 40.3 ng/mL in data set [2] (male, beagle, dog, plasma, po, 2 mg/kg, dog Lupo, single oral 2 mg/kg, fed male beagle dog, cross-over, granulate with 20% SDS in gelatine capsules); 29.8 ng/mL in data set [2] (male, beagle, dog, plasma, po, 2 mg/kg, dog Mickey, single oral 2 mg/kg, fed male beagle dog, cross-over, granulate with 20% SDS in gelatine capsules); 36.5 ng/mL in data set [2] (setting [8]). In addition, in data set [2] (setting [10]), the “Mean Cmax, higher after form A as compared to form B” value was found to be 1.7 fold. The “Mean oral bioavailability, higher after form A as compared to form B” value in data set [2] (setting [10]) is 1.9 fold.

Regarding `Cc1cc(F)ccc1-c1cc(N2CCS(=O)(=O)CC2)ncc1N(C)C(=O)C(C)(C)c1cc(C(F)(F)F)cc(C(F)(F)F)c1` [Form B, 2-(3,5-bis-trifluoromethyl-phenyl)-N-[6-(1,1-dioxo-1λ^6-thiomorpholin-4-yl)-4-(4-fluoro-2-methyl-phenyl)-pyridin-3-yl]-N-methyl-isobutyramide], the “AUC(0–24 h)” value was 949 ng·h/mL in data set [2] (setting [3]); 3880 ng·h/mL in data set [2] (setting [4]); 1130 ng·h/mL in data set [2] (setting [5]); 1330 ng·h/mL in data set [2] (setting [6]); 1822 ng·h/mL in data set [2] (setting [9]). The “C(24 h)” value in data set [2] (setting [3]) is 17.7 ng/mL; in data set [2] (setting [4]), 51.7 ng/mL; in data set [2] (setting [5]), 23.2 ng/mL; in data set [2] (setting [6]) it was 21.4 ng/mL; in data set [2] (setting [9]), 28.5 ng/mL. For the same compound, the Cmax was determined as 122 ng/mL in data set [2] (setting [3]); 631 ng/mL in data set [2] (setting [4]); 216 ng/mL in data set [2] (setting [5]); 251 ng/mL in data set [2] (setting [6]); 305 ng/mL in data set [2] (setting [9]). For the same compound, the F stood at 6.3% in data set [2] (setting [3]); 21% in data set [2] (setting [4]); 6.8% in data set [2] (setting [5]); 8.2% in data set [2] (setting [6]); 11.0% in data set [2] (setting [9]).

With `Cc1cc(F)ccc1-c1cc(N2CCS(=O)(=O)CC2)ncc1N(C)C(=O)C(C)(C)c1cc(C(F)(F)F)cc(C(F)(F)F)c1` [Form C, 2-(3,5-bis-trifluoromethyl-phenyl)-N-[6-(1,1-dioxo-1λ^6-thiomorpholin-4-yl)-4-(4-fluoro-2-methyl-phenyl)-pyridin-3-yl]-N-methyl-isobutyramide], in data set [2] (setting [11]), the AUC(0-t) was determined as 2660 ng·h/mL and the concentration at 24 h was 29.2 ng/mL. In addition, in data set [2] (male, beagle, dog, plasma, po, 2 mg/kg, mean, n=4, single oral 2 mg/kg, fed male beagle dogs, finely milled compound with 10% SDS in gelatine capsules, read-out: Cmax), the Cmax came out at 510 ng/mL. The same compound returned a F in data set [2] (mean, n=4, single oral 2 mg/kg, fed male beagle dogs, finely milled compound with 10% SDS in gelatine capsules) of 13.3%. Also, in data set [2] (setting [12]), the “mean AUC(0–24 h) compared with form A” value is listed as “approximately the same” and the “mean Cmax compared with form A” value is “approximately the same”.

Turning to `Cc1cc(F)ccc1-c1cc(N2CCS(=O)(=O)CC2)ncc1N(C)C(=O)C(C)(C)c1cc(C(F)(F)F)cc(C(F)(F)F)c1` [amorphous material, 2-(3,5-bis-trifluoromethyl-phenyl)-N-[6-(1,1-dioxo-1λ^6-thiomorpholin-4-yl)-4-(4-fluoro-2-methyl-phenyl)-pyridin-3-yl]-N-methyl-isobutyramide], in data set [1], the “reversible uptake of water (DVS)” value was found to be 0.8 %-w/w. In addition, in data set [2], the “bioavailability (general statement of the description)” value was “improved bioavailability”. For the same compound, the “exposure after oral administration (ranking of forms)” value in data set [2] (beagle dogs, amorphous as microsuspension) is listed as “highest”. Further, the concentration at 24 h in data set [2] (beagle, dog, plasma, oral, 5 mg/kg, mean, n=2, 5 mg/kg oral microsuspension, values normalized to 2 mg/kg) came out at 49.2 ng/mL; in data set [2] (setting [13]) it was 123 ng/mL. Besides, the AUC(0-t) worked out at 4160 ng·h/mL in data set [2] (beagle, dog, plasma, po, 5 mg/kg, mean, n=2, 5 mg/kg oral microsuspension, values normalized to 2 mg/kg) and 10400 ng·h/mL in data set [2] (setting [13]). Further, the Cmax was 1220 ng/mL in data set [2] (beagle, dog, plasma, po, 5 mg/kg, mean, n=2, 5 mg/kg oral microsuspension, values normalized to 2 mg/kg, read-out: Cmax) and 3050 ng/mL in data set [2] (beagle, dog, plasma, po, 5 mg/kg, mean, n=2, single oral 5 mg/kg by gavage as microsuspension, fed dogs, read-out: Cmax). In data set [2] (mean, n=2, 5 mg/kg oral microsuspension, values normalized to 2 mg/kg), this compound had an F of 24.5%.
